What is called IC50 is the concentration at which inhibition is half-maximal.

The structures appear in SMILES notation.

The target in the experiment is T1, Human autotaxin enzyme (Homo sapiens, UniProt Q13822).
T1 construct: purchased R&D System
Kind of experiment: Evaluation of autotaxin inhibitor, Method C (18:0 Lyso PC substrate, choline assay, Resorufin fluorescence). The class given is biochemical. Particulars: Method C (Test Example 3), read-out: Inhibitory activity (enzyme inhibitory activity, IC50). In outline: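 Recombinant human autotaxin with compound and 200 μM 18:0 Lyso PC (stock) in Tris-HCl pH 7.5, NaCl, MgCl2, Triton X-100, 2 h RT. Released choline detected via choline oxidase/peroxidase/Amplex-type reagent, 20 min, resorufin fluorescence 531/598 nm; % inhibition vs no-compound and no-enzyme controls, concentration-response curve.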

Regarding `CCCCC1CN(Cc2ccc(C#N)cc2)C(=O)c2cc(-c3ccc(Cl)cc3CN(C)C)nn21` (stereo not shown) [Compound I-0282], the 50% inhibitory concentration (IC50) is not below 1000 nM.

For the origin of these results see patent publication US10189843B2, “Fused pyrazole derivative having autotaxin inhibitory activity” (The University of Tokyo, priority 2014, dated 2019).
